This data set in a line: Viscosity of ISIS antisense oligonucleotides, micro-viscometer at 25 °C (Example 47). The settings on record: for Concentration: concentration of the viscosity sample, UV reading at 260 nM at 85° C.; for Viscosity: in water, micro-viscometer at 25° C., at the concentration of the same line. The data set is classed as physicochemical. The method in brief: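 Oligonucleotide (32-35 mg) was dissolved in 120 μL water by heating at 50° C, and viscosity was measured by micro-viscometer at 25° C. Concentration was checked by UV at 260 nm at 85° C on a dilution in water. Screening cut-off: >40 cP at 165-185 mg/mL.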

Several values for one entry are separate records, joined by “and”; a condition that tells them apart may be missing. Equal values may be shown once. Strand notation (5' to 3'): a small letter for the sugar, then the base; units joined by * are phosphorothioate-linked, units joined directly phosphodiester-linked; [ ] holds rarer units or linkages, { } end groups; capitals alone tell only the bases. e = 2'-O-(2-methoxyethyl) (MOE); [5mC] = 5-methylcytosine; d = 2'-deoxy (DNA)

On to “412223 (antisense ACAGTTTCTGGCAGGCCTCG; 5-10-5 MOE gapmer, further chemistry not given here) [compound 412223]”, for which the Concentration amounted to 163 mg/mL and the Viscosity is listed as 8 cP.
Substance “412224 (antisense GCATTGGTGCACAGTTTCTG; 5-10-5 MOE gapmer, further chemistry not given here) [compound 412224]” displayed a Concentration of 186 mg/mL and a Viscosity of 98 cP.
The substance “412225 (antisense GCAGCGGACGGCATTGGTGC; 5-10-5 MOE gapmer, further chemistry not given here) [compound 412225]” registered a Concentration of 162 mg/mL and a Viscosity of more than 100 cP.
The corresponding values for “413482 (antisense GGACGGCATTGGTGCACAGT; 5-10-5 MOE gapmer, further chemistry not given here) [compound 413482]” are 172 mg/mL and 16. cP.
“416856 (antisense GGCATTGGTGCACAGTTTCT; 5-10-5 gapmer, further chemistry not given here) [compound 416856]” came in with a Concentration of 175 mg/mL and a Viscosity of 18 cP.
Consider “445522 (antisense eG*e[5mC]*eA*e[5mC]*eA*dG*dT*dT*dT*d[5mC]*dT*dG*dG*e[5mC]*eA*eG*eG*e[5mC]) [compound 445522]”, for which the Concentration was 173 mg/mL and 174 mg/mL; the Viscosity was 63 cP and 58 cP.
On to “445531 (antisense eG*eG*e[5mC]*eA*eT*dT*dG*dG*dT*dG*d[5mC]*dA*d[5mC]*eA*eG*eT*eT*eT) [compound 445531]”, for which the Concentration is 155 mg/mL and 179 mg/mL; the Viscosity is 15 cP and 20 cP.
